Data from patent US20050250801A1, “Method of treating cancer with azaspirane compositions” (priority 2003, published 2005).

How the values were obtained:
CaCo-2 cells = experiment: Inhibition of proliferation of CaCo-2 cells (WST-1, Example 8); type: cell-based; settings: Homo sapiens, 12 hours; for inhibition at 5 µM: read-out: % Inhibition of Proliferation at 5 μM Compound
Method: The effect of N,N,-diethyl-8,8-dipropyl-2-azaspiro[4,5]decane-2-propanamine dimaleate (Compound 1) and other analogs (structures shown in Table 7) on proliferation of CaCo-2, a human colon carcinoma cell line, were evaluated in the following manner. Cell proliferation was measured by WST-1 dye conversion to Formazan assay using a proliferation kit from BioVision, CA. The procedure used was essentially the same as described in the manufacture's instructions. Briefly, cells were grown for 7 days until they formed semi-confluent monolayers. On day 7, cells were trypsinized and re-suspended in 96-well plates at a concentration of approximately 50,000 cells/well. […] A solution of 10 μl of WST-1 dye per well was added and plates were read after 4 hours at 440 and 600 nm using an ELISA plate reader. The absorbance at 440-600 nm is directly proportion to the number of proliferating cells. All samples were measured in duplicate and results were expressed as an average of two determinations.

[1] = test system: chorioallantoic membrane (CAM); experiment: Anti-angiogenesis CAM assay; type: in vivo, White Leghorn eggs; settings: Dose per egg 100 μg; 48 hour exposure; ten eggs
Method: The dosing was effected by pipetting 40 μl of the indicated solution onto a 13 mm round Thermanox® coverslip and allowing it to air dry. After the material appeared dry, the coverslip was placed onto the chorioallantoic membrane (CAM) of each egg insuring contact of the dried test article with the CAM. After dosing, the eggs were returned to the incubator for approximately 48 hours. Following the 48 hour exposure period, the eggs were removed from the incubator, observed for viability, and the exposed area under the coverslip was examined for loss of vasculature.

Structure (SMILES) | inhibition at 5 µM (CaCo-2 cells) [%] | IC50 (CaCo-2 cells) [µM] | Dead Eggs [1]
CN(C)CCCN1CCC2(CCOCC2)C1 [B] | 0 | > 20 | –
CCCCC1(CC)CCC2(CCN(CCCN(C)C)C2)CC1 (stereo not shown) [K] | 81 | ~2.5 | –
CN(C)CCCN1CCC2(CCC(C(C)(C)C)CC2)CC1 [A] | 45 | ~20 | –
CCCC1(CCC)CCC2(CCN(CCCCCCN(C)C)C2)CC1 [L] | 76 | ~3.5 | –
CCC1(CC)CCC2(CCN(CCCN(C)C)C2)CC1 [F] | 35 | > 20 | –
CN(C)CCCN1CCC2(CCC(C)(C)CC2)C1 [E] | 0 | > 20 | –
CN(C)CCCN1CCC2(CCC(C(C)(C)C)CC2)C1 (stereo not shown) [Compound C] | 15 | > 20 | –
CN(C)CCCN1CCC2(CCCCC2)CC1 [D] | 0 | > 20 | –
CCCCCC1(CCCCC)CCC2(CCN(CCCN(C)C)CC2)CC1 [G] | 86 | ~2.5 | –
O=C1CCC(N2C(=O)c3ccccc3C2=O)C(=O)N1 (stereo not shown) [Thalidomide, reference compound] | – | – | 0
CCCCCCCCCCC1CCC2(CC1)CCN(CCCN(C)C)C2 (stereo not shown) [H] | 73 | ~3.5 | –
CCCCC1(CCCC)CCC2(CCN(CCCN(C)C)C2)CC1 [J] | 84 | ~2.5 | –
CCCC1(CCC)CCC2(CCN(CCCN3CCCCC3)C2)CC1 [M] | 67 | ~4 | –
